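96-well plates; 48 h exposure; 5 concentrations. Endpoints by linear interpolation between flanking doses. Not reached: highest tested concentration assigned. The concentration for 50% growth inhibition is given as GI50.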 Calls of active or inactive are those of the source. Rule as the data show it: active = GI50 up to about 1.1 µM and inactive = higher.
What was measured:
Assay in all cases: NCI-60 cell line screen, 48 h
NCI/ADR-RES = test system: NCI/ADR-RES
HOP-62 = test system: HOP-62
NCI-H522 = test system: NCI-H522
NCI-H226 = test system: NCI-H226
UO-31 = test system: UO-31
RXF 393 = test system: RXF 393
SF-295 = test system: SF-295
A498 = test system: A498
SF-268 = test system: SF-268
Malme-3M = test system: Malme-3M
MDA-MB-231 = test system: MDA-MB-231
Hs-578T = test system: Hs-578T
RPMI-8226 = test system: RPMI-8226
HCT-116 = test system: HCT-116
CAKI-1 = test system: CAKI-1
HL-60 = test system: HL-60
SK-OV-3 = test system: SK-OV-3
CCRF-CEM = test system: CCRF-CEM
SW-620 = test system: SW-620
MOLT-4 = test system: MOLT-4

SMILES	GI50 (NCI/ADR-RES)	GI50 (HOP-62)	GI50 (NCI-H522)	GI50 (NCI-H226)	GI50 (UO-31)	GI50 (RXF 393)	GI50 (SF-295)	GI50 (A498)	GI50 (SF-268)	GI50 (Malme-3M)	GI50 (MDA-MB-231)	GI50 (Hs-578T)	GI50 (RPMI-8226)	GI50 (HCT-116)	GI50 (CAKI-1)	GI50 (HL-60)	GI50 (SK-OV-3)	GI50 (CCRF-CEM)	GI50 (SW-620)	GI50 (MOLT-4)
CC(=O)Nc1ccc(-c2nc3ccccc3s2)cc1Cl	> 86.9 µM (inactive)	22.7 µM (inactive)	54.5 µM (inactive)	0.762 µM (active)	27.7 µM (inactive)	26.5 µM (inactive)	41.9 µM (inactive)	5.68 µM (inactive)	56.8 µM (inactive)	> 100 µM (inactive)	67.8 µM (inactive)	17.9 µM (inactive)	> 100 µM (inactive)	58.7 µM (inactive)	56.5 µM (inactive)	> 100 µM (inactive)	40.6 µM (inactive)	> 100 µM (inactive)	> 100 µM (inactive)	> 83.4 µM (inactive)
c1cncc(CNCc2cccnc2)c1	> 100 µM (inactive)	> 100 µM (inactive)	> 100 µM (inactive)	> 100 µM (inactive)	> 100 µM (inactive)	> 100 µM (inactive)	> 100 µM (inactive)	> 100 µM (inactive)	> 100 µM (inactive)	> 100 µM (inactive)	> 100 µM (inactive)	> 100 µM (inactive)	> 100 µM (inactive)	> 100 µM (inactive)	> 100 µM (inactive)	3.6 µM (inactive)	> 100 µM (inactive)	49.2 µM (inactive)	> 100 µM (inactive)	> 100 µM (inactive)
C[C@]12CC[C@@H]3c4cc(OCC(F)(F)F)c(O)cc4CC[C@H]3[C@@H]1CC[C@@H]2O	2.24 µM (inactive)	11.6 µM (inactive)	0.558 µM (active)	7.05 µM (inactive)	8.65 µM (inactive)	1.52 µM (inactive)	1.54 µM (inactive)	7.66 µM (inactive)	9.29 µM (inactive)	0.673 µM (active)	0.536 µM (active)	2.83 µM (inactive)	1.17 µM (inactive)	1.9 µM (inactive)	2.74 µM (inactive)	0.403 µM (active)	1.69 µM (inactive)	1.51 µM (inactive)	1.05 µM (active)	1 µM (active)
CC(C)(C)C(=O)C(C#N)C(=O)C(C)(C)C	> 100 µM (inactive)	> 100 µM (inactive)	> 100 µM (inactive)	> 100 µM (inactive)	> 100 µM (inactive)	> 100 µM (inactive)	> 100 µM (inactive)	> 100 µM (inactive)	> 100 µM (inactive)	> 100 µM (inactive)	> 100 µM (inactive)	> 100 µM (inactive)	> 100 µM (inactive)	> 100 µM (inactive)	> 100 µM (inactive)	> 100 µM (inactive)	> 100 µM (inactive)	> 100 µM (inactive)	> 100 µM (inactive)	> 100 µM (inactive)
CCCCCCCC(=O)OC[n+]1ccc(-c2c(COC(=O)NC(C)C)c(COC(=O)NC(C)C)c3n2CCC3)cc1	53.8 µM (inactive)	56.6 µM (inactive)	26.4 µM (inactive)	> 78.5 µM (inactive)	42.4 µM (inactive)	21.1 µM (inactive)	53.5 µM (inactive)	29.9 µM (inactive)	25.8 µM (inactive)	44.9 µM (inactive)	48.8 µM (inactive)	52.6 µM (inactive)	22.1 µM (inactive)	25.5 µM (inactive)	18.6 µM (inactive)	14.8 µM (inactive)	63.1 µM (inactive)	13.5 µM (inactive)	23.2 µM (inactive)	13.3 µM (inactive)
O=C1Cc2c(-c3ccc(Cl)cc3)cc(-c3ccccc3)nc2-c2ccccc2N1	6.19 µM (inactive)	8.24 µM (inactive)	8.38 µM (inactive)	10.8 µM (inactive)	4.34 µM (inactive)	4.81 µM (inactive)	6.38 µM (inactive)	2.07 µM (inactive)	12.1 µM (inactive)	17 µM (inactive)	4.35 µM (inactive)	7.26 µM (inactive)	9.25 µM (inactive)	3.44 µM (inactive)	4.86 µM (inactive)	10.7 µM (inactive)	4.46 µM (inactive)	6.35 µM (inactive)	11 µM (inactive)	9.53 µM (inactive)
C/C=C/C(=O)N1C(=O)OC[C@@H]1c1ccccc1	22.4 µM (inactive)	20.4 µM (inactive)	20.4 µM (inactive)	22.2 µM (inactive)	19.5 µM (inactive)	18.5 µM (inactive)	26.7 µM (inactive)	26.1 µM (inactive)	20.5 µM (inactive)	20.4 µM (inactive)	22 µM (inactive)	24.8 µM (inactive)	26.1 µM (inactive)	19.9 µM (inactive)	18.3 µM (inactive)	21.9 µM (inactive)	18.2 µM (inactive)	23 µM (inactive)	24.6 µM (inactive)	25.2 µM (inactive)

From ChEMBL document CHEMBL1201862, “PubChem BioAssay data set” (2004)
